Assay: Solubility of celecoxib in PEG-400/water
Type: physicochemical
Details: 2:1 mixture of PEG-400 and water
Experimental: Water-miscible, nonvolatile liquids such as polyethylene glycols have been successfully used in encapsulated solution formulations. Moreover, polyethylene glycols are also good solvents for drugs of low water solubility because they are known to improve aqueous drug solubility. For example, celecoxib, which has very low solubility in water, is highly soluble (>300 mg/g) in a 2:1 mixture of PEG-400 and water.

## Cc1ccc(-c2cc(C(F)(F)F)nn2-c2ccc(S(N)(=O)=O)cc2)cc1 [celecoxib, 4-[5-(4-methylphenyl)-3-(trifluoromethyl)-1H-pyrazol-1-yl]benzenesulfonamide]
  solubility: > 300 mg/g
